According to patent EP3041353B1, “COMPOSITIONS COMPRISING BACTERIOSTATIC AGENTS AND BRILLIANT BLUE G” (priority 2013, dated 2015):

Columns and labels:
[1] = system: HCE-Zellen; type: cell-based, human
Method: Die Erfindung wird im Folgenden rein zu Veranschaulichungszwecken anhand der angehängten Figuren und von Ausführungsbeispielen näher erläutert. • Figur 1 Effekt von 0,025% BBG auf die Toxizität von unterschiedlichen Konzentrationen (in Gew.-%) von Benzalkoniumchlorid (BAK) auf HCE-Zellen (HCE = human corneal epithelium, Menschliche Hornhautepithelzellen) bei verschiedenen Einwirkdauern (5, 30, 60 min). Oben: BAK ohne BBG. Unten: BAK mit BBG. Inkubationsmedium: Phosphat-gepufferte Kochsalzlösung (PBS). • Figur 2 Effekt von BBG (in Gew.-%) in unterschiedlichen Konzentrationen auf die Toxizität von BAK bei 0,003% (oben) und 0,008% (unten). PBS = Phosphat-gepufferte Kochsalzlösung; BBS = balanced salt solution (ausgeglichene Salzlösung). • Figur 3 Effekt von BBG (0,025 Gew.-%) auf die Toxizität von Octenidindihydrochlorid (Oct) in unterschiedlichen Konzentrationen (in Gew.-%) nach 5 min Inkubation (oben) und 30 min Inkubation (unten). Octenidin alone = Octenidin allein (ohne BBG). • Figur 4 Effekt von BBG (0,025 %) auf die Toxizität von Cetylpyridiniumchlorid (CPC) in unterschiedlichen Konzentrationen (in Gew.-%) nach 5 min Inkubation (oben) und 30 min Inkubation (unten). CPC alone = Cetylpyridiniumchlorid allein (ohne BBG). • Figur 5 Effekt von BBG (0,025 %) auf die Toxizität von Chlorhexidin (CHex) in Form von Chlorhexidindigluconat in unterschiedlichen Konzentrationen (in Gew.-%) nach 5 min Inkubation (oben) und 30 min Inkubation (unten). Chlorhexidin alone = Chlorhexidin allein (ohne BBG)
Figur 1 zeigt die Wirkung von BBG 0,025% Gew.-% auf die Toxizität von unterschiedlichen Konzentrationen (in Gew.-%) von Benzalkoniumchlorid (BAK) auf HCE-Zellen (HCE = human corneal epithelium, Menschliche Hornhautepithelzellen) bei verschiedenen Einwirkdauern (5, 30, 60 min).
Figur 2 zeigt die Wirkung von BBG (in Gew.-%) in unterschiedlichen Konzentrationen und zwei unterschiedlichen Medien (PBS und BSS) auf die Toxizität von BAK bei 0,003% (oben) und 0,008% (unten) bei HCE-Zellen. Die Schutzwirkung von BBG bei niedrigeren BAK-Konzentrationen setzt schon bei 0,003% BBG ein. Bei höheren BAK-Konzentrationen sind 0,015% notwendig.
Figur 3 zeigt die Wirkung von BBG (0,025 Gew.-%) auf die Toxizität von Octenidin (Oct) Form von Octenidindihydrochlorid in unterschiedlichen Konzentrationen (in Gew.-%) nach 5 min Inkubation (oben) und 30 min Inkubation (unten). Octenidin alone = Octenidin allein (ohne BBG). […] BBG (0,025 Gew.-%) kann diesen Effekt bei 5 min Inkubation (links) bis zu einer Oct-Konzentration von 0,01% (der höchsten getesteten Konzentration) verhindern. Bei 30 min Einwirkzeit (rechts) ist erst ab 0,009 Gew.-% Oct der Schutz nicht mehr maximal.
Die Figuren 4 und 5 zeigen die Wirkung von BBG (0,025 Gew.-%) auf die Toxizität von Cetylpyridiniumchlorid (CPC, Fig. 4) und Chlorhexidin (CHex in Form von Chlorhexidindigluconat, Fig. 5) in unterschiedlichen Konzentrationen (in Gew.-%) nach 5 min Inkubation (jeweils oben) und 30 min Inkubation (jeweils unten).

[2] = system: Vibrio sp. Gal12; assay: Bacteriostatic effect of Octenidin with BBG: turbidity after 24 h incubation; type: cell-based; set-up: key: +: Bakterienwachstum nach 24 h Inkubation; -: kein Bakterienwachstum nach 24 h Inkubation; settings: no BBG
Method: (§1) Zur Untersuchung des Einflusses von BBG auf die bakteriostatische Wirkung wurden Bakterien 24 h mit erfindungsgemäßen Zusammensetzungen, Benzalkoniumchlorid (BAK) und Octenidin (Oct) als Bakteriostatikum enthielten, inkubiert. Wenn sich die Inkubationsmischung trübte, wurde das als Bakterienwachstum interpretiert. Zum Vergleich wurde Brillantblau R (BBR) anstelle von BBG eingesetzt. Die Ergebnisse sind in den Tabellen 1-4 wiedergegeben. Tabelle 1: Einfluss von BBG und BBR auf die bakteriostatische Wirkung von BAK gegenüber Escherichia coli (E. coli), + = Bakterienwachstum nach 24 h Inkubation, - = kein Bakterienwachstum nach 24 h Inkubation, R = Brillantblau R (BBR), G = Brillantblau G (BBG).
(§2) Gram-negative Bakterien (hier E. coli) sind widerstandsfähiger als Gram-positive Bakterien (hier Bacillus sp.) und wachsen konzentrationsabhängig. […] Tabelle 3: Einfluss von BBG auf die bakteriostatische Wirkung von Octenidin (Oct) gegenüber Gram-negativen Bakterien., + = Bakterienwachstum nach 24 h Inkubation, - = kein Bakterienwachstum nach 24 h Inkubation, BBG = Brillantblau G.

[3] = system: Pseudomonas putida DSM 291; assay: as above; type: cell-based; set-up: key: +: Bakterienwachstum nach 24 h Inkubation; -: kein Bakterienwachstum nach 24 h Inkubation; settings: no BBG
Method: as §1, §2

[4] = system: Escherichia coli DH5α; assay: as above; type: cell-based; set-up: key: +: Bakterienwachstum nach 24 h Inkubation; -: kein Bakterienwachstum nach 24 h Inkubation; settings: no BBG
Method: as §1, §2

[5] = system: Bacillus megaterium; assay: as above; type: cell-based; set-up: key: +: Bakterienwachstum nach 24 h Inkubation; -: kein Bakterienwachstum nach 24 h Inkubation; settings: no BBG
Method: as §1
(§3) Tabelle 4: Einfluss von BBG auf die bakteriostatische Wirkung von Octenidin (Oct) gegenüber Gram-positiven Bakterien., + = Bakterienwachstum nach 24 h Inkubation, - = kein Bakterienwachstum nach 24 h Inkubation, +/- = geringes Wachstum nach 24 h Inkubation, BBG = Brillantblau G.

[6] = system: Paenibacillus sp.; assay: as above; type: cell-based; set-up: key: +: Bakterienwachstum nach 24 h Inkubation; -: kein Bakterienwachstum nach 24 h Inkubation; settings: no BBG
Method: as §1, §3

[7] = system: Bacillus subtilis; assay: as above; type: cell-based; set-up: key: +: Bakterienwachstum nach 24 h Inkubation; -: kein Bakterienwachstum nach 24 h Inkubation; settings: no BBG
Method: as §1, §3

[8] = system: Clavibacter michiganensis; assay: as above; type: cell-based; set-up: key: +: Bakterienwachstum nach 24 h Inkubation; -: kein Bakterienwachstum nach 24 h Inkubation; settings: no BBG
Method: as §1, §3

[9] = system: Escherichia coli (E. coli); assay: Bacteriostatic effect of BAK with BBG/BBR: turbidity after 24 h incubation; type: cell-based; set-up: key to Bakterienwachstum nach 24 h Inkubation: +: Bakterienwachstum nach 24 h Inkubation; -: kein Bakterienwachstum nach 24 h Inkubation
Method: as §1

[10] = system: Bacillus sp.; assay: as above; type: cell-based; set-up: key to Bakterienwachstum nach 24 h Inkubation: +: Bakterienwachstum nach 24 h Inkubation; -: kein Bakterienwachstum nach 24 h Inkubation
Method: as §1
Tabelle 2: Einfluss von BBG und BBR auf die bakteriostatische Wirkung von BAK gegenüber Bacillus sp., + = Bakterienwachstum nach 24 h Inkubation, - = kein Bakterienwachstum nach 24 h Inkubation, R = Brillantblau R (BBR), G = Brillantblau G (BBG).

CCCCCCCCN=c1ccn(CCCCCCCCCCn2ccc(=NCCCCCCCC)cc2)cc1 [Octenidin, reference compound]
Toxizität (Zellschädigung) [1]: stark zellschädigend
Bakterienwachstum nach 24 h Inkubation ([2]; Octenidin 0,01% alone): -
Bakterienwachstum nach 24 h Inkubation ([2]; Octenidin 0,002% alone): -
Bakterienwachstum nach 24 h Inkubation ([2]; Octenidin 0,003% alone): -
Bakterienwachstum nach 24 h Inkubation ([2]; Octenidin 0,005% alone): -
Bakterienwachstum nach 24 h Inkubation ([2]; Octenidin 0,007% alone): -
Bakterienwachstum nach 24 h Inkubation ([2]; Octenidin 0,009% alone): -
Bakterienwachstum nach 24 h Inkubation ([3]; Octenidin 0,01% alone): -
Bakterienwachstum nach 24 h Inkubation ([3]; Octenidin 0,002% alone): -
Bakterienwachstum nach 24 h Inkubation ([3]; Octenidin 0,003% alone): -
Bakterienwachstum nach 24 h Inkubation ([3]; Octenidin 0,005% alone): -
Bakterienwachstum nach 24 h Inkubation ([3]; Octenidin 0,007% alone): -
Bakterienwachstum nach 24 h Inkubation ([3]; Octenidin 0,009% alone): -
Bakterienwachstum nach 24 h Inkubation ([4]; Octenidin 0,01% alone): -
Bakterienwachstum nach 24 h Inkubation ([4]; Octenidin 0,002% alone): -
Bakterienwachstum nach 24 h Inkubation ([4]; Octenidin 0,003% alone): -
Bakterienwachstum nach 24 h Inkubation ([4]; Octenidin 0,005% alone): -
Bakterienwachstum nach 24 h Inkubation ([4]; Octenidin 0,007% alone): -
Bakterienwachstum nach 24 h Inkubation ([4]; Octenidin 0,009% alone): -
Bakterienwachstum nach 24 h Inkubation ([5]; Octenidin 0,01% alone): -
Bakterienwachstum nach 24 h Inkubation ([5]; Octenidin 0,002% alone): -
Bakterienwachstum nach 24 h Inkubation ([5]; Octenidin 0,003% alone): -
Bakterienwachstum nach 24 h Inkubation ([5]; Octenidin 0,005% alone): -
Bakterienwachstum nach 24 h Inkubation ([5]; Octenidin 0,007% alone): -
Bakterienwachstum nach 24 h Inkubation ([5]; Octenidin 0,009% alone): -
Bakterienwachstum nach 24 h Inkubation ([6]; Octenidin 0,01% alone): -
Bakterienwachstum nach 24 h Inkubation ([6]; Octenidin 0,002% alone): -
Bakterienwachstum nach 24 h Inkubation ([6]; Octenidin 0,003% alone): -
Bakterienwachstum nach 24 h Inkubation ([6]; Octenidin 0,005% alone): -
Bakterienwachstum nach 24 h Inkubation ([6]; Octenidin 0,007% alone): -
Bakterienwachstum nach 24 h Inkubation ([6]; Octenidin 0,009% alone): -
Bakterienwachstum nach 24 h Inkubation ([7]; Octenidin 0,01% alone): -
Bakterienwachstum nach 24 h Inkubation ([7]; Octenidin 0,002% alone): -
Bakterienwachstum nach 24 h Inkubation ([7]; Octenidin 0,003% alone): -
Bakterienwachstum nach 24 h Inkubation ([7]; Octenidin 0,005% alone): -
Bakterienwachstum nach 24 h Inkubation ([7]; Octenidin 0,007% alone): -
Bakterienwachstum nach 24 h Inkubation ([7]; Octenidin 0,009% alone): -
Bakterienwachstum nach 24 h Inkubation ([8]; Octenidin 0,01% alone): -
Bakterienwachstum nach 24 h Inkubation ([8]; Octenidin 0,002% alone): -
Bakterienwachstum nach 24 h Inkubation ([8]; Octenidin 0,003% alone): -
Bakterienwachstum nach 24 h Inkubation ([8]; Octenidin 0,005% alone): -
Bakterienwachstum nach 24 h Inkubation ([8]; Octenidin 0,007% alone): -
Bakterienwachstum nach 24 h Inkubation ([8]; Octenidin 0,009% alone): -

Benzalkoniumchlorid [BAK]
Bakterienwachstum nach 24 h Inkubation ([9]; BAK 0,01% alone, no dye): -
Bakterienwachstum nach 24 h Inkubation ([9]; BAK 0,001 % alone, no dye): -
Bakterienwachstum nach 24 h Inkubation ([10]; BAK 0.001% alone, no dye): -

Brillantblau R [BBR]
Schutzwirkung (zelltoxische Wirkung der Bakteriostatika bei gleichzeitiger Gabe) ([1]; dye given together with the bacteriostatic agent): zeigte sich diese Schutzwirkung nicht
Bakterienwachstum nach 24 h Inkubation ([9]; 0,007% R + BAK 0,01%): -
Bakterienwachstum nach 24 h Inkubation ([9]; 0,007% R + BAK 0,001 %): +
Bakterienwachstum nach 24 h Inkubation ([9]; 0,007% R + BAK 0,0016%): +
Bakterienwachstum nach 24 h Inkubation ([9]; 0,007% R + BAK 0,0025%): -
Bakterienwachstum nach 24 h Inkubation ([9]; 0,007% R + BAK 0,004%): -
Bakterienwachstum nach 24 h Inkubation ([9]; 0,007% R + BAK 0,006%): -
Bakterienwachstum nach 24 h Inkubation ([9]; 0,015% R + BAK 0,01%): -
Bakterienwachstum nach 24 h Inkubation ([9]; 0,015% R + BAK 0,001 %): +
Bakterienwachstum nach 24 h Inkubation ([9]; 0,015% R + BAK 0,0016%): +
Bakterienwachstum nach 24 h Inkubation ([9]; 0,015% R + BAK 0,0025%): +
Bakterienwachstum nach 24 h Inkubation ([9]; 0,015% R + BAK 0,004%): -
Bakterienwachstum nach 24 h Inkubation ([9]; 0,015% R + BAK 0,006%): -
Bakterienwachstum nach 24 h Inkubation ([9]; 0,030% R + BAK 0,01%): -
Bakterienwachstum nach 24 h Inkubation ([9]; 0,030% R + BAK 0,001 %): +
Bakterienwachstum nach 24 h Inkubation ([9]; 0,030% R + BAK 0,0016%): +
Bakterienwachstum nach 24 h Inkubation ([9]; 0,030% R + BAK 0,0025%): +
Bakterienwachstum nach 24 h Inkubation ([9]; 0,030% R + BAK 0,004%): +
Bakterienwachstum nach 24 h Inkubation ([9]; 0,030% R + BAK 0,006%): +
Bakterienwachstum nach 24 h Inkubation ([9]; 0,030% R, Kein BAK): +
Einfluss auf die bakteriostatische Wirkung von BAK ([9]; Gram-negative Bakterien (E. coli), concentration dependent): hebt einen Teil der bakteriostatischen Wirkung auf
Einfluss auf das Bakterienwachstum ([9]; dye alone, no BAK (rechte Spalte, Tabelle 1)): beeinflussen das Bakterienwachstum nicht
Bakterienwachstum nach 24 h Inkubation ([10]; 0.007% R + BAK 0.001%): -
Bakterienwachstum nach 24 h Inkubation ([10]; 0.007% R + BAK 0.01%): -
Bakterienwachstum nach 24 h Inkubation ([10]; 0.030% R, Kein BAK): +
Einfluss auf das Bakterienwachstum ([10]; dye alone, no BAK (rechte Spalte, Tabelle 2)): beeinflussen das Bakterienwachstum nicht
